Data as given in patent publication US20140275090A1, “BILE ACID RECYCLING INHIBITORS FOR TREATMENT OF PRIMARY SCLEROSING CHOLANGITIS AND INFLAMMATORY BOWEL DISEASE” (Lumena Pharmaceuticals, Inc., priority 2013, published 2014).

Tests used:
fecal bile acids = experiment: Phase 1 ascending multiple oral doses of LUM001 in healthy adults: fecal bile acid analysis; assay type: in vivo, human; details: 28 days
Description: This Phase 1 study was a randomized, double-blind, placebo-controlled study of ascending multiple oral doses of LUM001 in healthy, adult subjects. This study was conducted at a single center. There were 13 LUM001 dosing panels: 10, 20, 60, 100, and 20 mg every morning (qAM) (2) (i.e., the regimen was tested a second time in the study), 5 mg every evening (qPM), 0.5, 1, 2.5, 5, 2.5 (2), 5 (2), and 0.5 to 5 mg qAM dose titration. Most of the dosing panels included subjects treated with matching placebo. No subject participated in more than 1 dosing panel. […]
On Day 1 of the Treatment Period, subjects who qualified for enrollment were randomized in the order in which they were admitted to the research facility. […] The safety and tolerability of LUM001 were evaluated by physical examination, ascertainment of adverse signs and symptoms, and clinical laboratory studies. […]
Fecal samples were collected for all panels except the dose-titration panel, 2.5 (2) and 5 mg (2), on Days 9 through 14 and 23 through 28 (data shown in FIG. 6; *p<0.05; **p<0.01 compared to placebo). Twenty-four hour FBA excretions were quantified by Pharmacia for Days 9 through 14 and 23 through 28. […] The weight of each 24-hour fecal collection was recorded on the CRFs. […]
An aliquot for each 24-hour fecal sample collected on Days 23 through 28 was combined, homogenized, and analyzed for bile acid species concentrations by ANAPHARM. […]

[1] = test system: Hepatic Cholesterol 7α-hydroxylase; experiment: Cholesterol 7-α hydroxylase activity assay, hamster liver microsomes; assay type: in vivo, golden Syrian hamster; details: 28 days
From the text: Male golden Syrian hamsters (126-147 gm) were obtained from Charles Rivers Laboratories and were single housed in a constant temperature environment with alternating 12-hour light and dark cycles. Hamsters were fed Teklad 7001 rodent meal chow at libitum for two weeks before the experimental studies began and switched to Teklad 7001 rodent meal chow supplemented with 0.24% cholesterol on day one of the 28-day experiment. Water was continuously available to the animals. Hamsters were assigned to groups in a manner that normalized each group by pretreatment body weights. SD-5613 was dissolved in an aqueous solution of 0.2% (w/v) Tween 80 and administered Q.D. by intragastric gavage between 9 a.m. and 10 a.m. each morning using a syringe fitted with a flexible feeding tube. Blood samples were collected after 14- and 28-day treatment periods by orbital sinus and cardiac puncture, respectively. Hamsters were anesthetized but not fasted prior to blood collections. Fecal samples were collected during a 48-hour period at the end of days 14 and 28 (i.e. days 13-14 and 27-28). Hamsters were sacrificed using carbon dioxide asphyxiation to obtain the following tissue samples: liver, kidneys, colon and cecum.
Homogenates of three gram liver tissue samples were prepared in 25 ml homogenization buffer [0.1 M potassium phosphate buffer, pH 7.2, containing 0.1 M sucrose, 50 mM KCl, 50 mM NaF, 5 mM ethylene glycol-bis(β-aminoethyl ether)-N,N,N′,N′-tetraacetic acid (EGTA), 1 mM EDTA, 3 mM dithiothreitol (DTIT), and 1 mM phenylmethylsulfonyl fluoride (PMSF)]. A microsomal fraction was prepared by centrifugation at 10,000×g for ten minutes. The supernatant was subjected to centrifugation at 105,000×g for two hours. The microsomal fraction was resuspended in a 0.1 M Na tetrapyrophosphate buffer (pH 10), with 50 mM NaF, and 1 mM EDTA, and subjected to centrifugation for one hour at 105,000×g. The microsomal fraction was resuspended in the homogenization buffer, and assayed for protein content by Coomassie Protein Plus Assay reagent.
Liver microsomes (1 mg) or 7-α-hydroxycholesterol standard solutions were preincubated for five minutes at 37° C. in a rocking water bath with 500 μl 5× buffer, 1.7 ml water, and 50 μl 0.1% (w/v) cholesterol as substrate in excess. The 5× buffer consists of 0.42 M Na2HPO4, 0.25 mM NaF, 0.08 M KH2PO4, 5 mM EDTA and 10 mM DTT. The reaction tubes were incubated at 37° C. in a rocking water bath throughout the remainder of the assay protocol, with cessation of rocking only for the period of time needed to add solutions. After the preincubation period, 250 μl of 10 mM NADPH was added and incubated for 5 minutes to allow enzymatic conversion of the cholesterol substrate to 7-α-hydroxycholesterol by endogenous 7-α-hydroxylase. The reaction was stopped by addition of 75 μl of 20% sodium cholate. After four minutes, 25 μl of 100 μM 20-α-hydroxycholesterol was added to each tube as an internal recovery standard. The tubes were allowed to rock briefly in the water bath to mix, then 40 μl of 25 U/ml cholesterol oxidase was added and the tubes were incubated for ten minutes to convert 7-α-hydroxycholesterol and 20-α-hydroxycholesterol to their ketone forms, 7-α-hydroxycholesten-3-one and 20-α-hydroxycholesten-3-one. After the enzymatic reactions were completed, the ketone products were isolated by four sequential extractions in 20, 10, 10 and 10 ml petroleum ether, respectively. The collected volumes were evaporated to dryness under a flow of nitrogen gas between each extraction step using a heat block set at 50° C. The final dried samples were resuspended in 125 μl mobile phase solution consisting of 70:30 acetonitrile/methanol for analysis by reversed phase HPLC. Chromatography was performed on a 4.6×250 mm Beckman Ultrosphere ODS reverse phase column in mobile phase solution. […]

## CCCCC1(CCCC)CS(=O)(=O)c2ccc(N(C)C)cc2[C@@H](c2ccc(OCc3ccc(C[N+]45CCN(CC4)CC5)cc3)cc2)[C@H]1O [LUM001]
Fecal bile acids
  effect on fecal bile acids: significant increase
[1]; 5 mg/kg/day
  Hepatic Cholesterol 7α-hydroxylase: 50.9 ± 4.8 pmol/mg-port/min
  Hepatic Cholesterol 7α-hydroxylase, % change from vehicle group: (+52) %
[1]; 15 mg/kg/day
  Hepatic Cholesterol 7α-hydroxylase: 56.5 ± 4.5 pmol/mg-port/min
  Hepatic Cholesterol 7α-hydroxylase, % change from vehicle group: (+69) %
[1]; 50 mg/kg/day
  Hepatic Cholesterol 7α-hydroxylase: 63.8 ± 5.6 pmol/mg-port/min
  Hepatic Cholesterol 7α-hydroxylase, % change from vehicle group: (+90) %
